Data on seven compounds can be found in US20110124690A1, “COMPOSITIONS AND METHODS FOR TREATING CANCER OR A NEUROTROPHIC DISORDER” (priority 2007, published 2011).

Series [1] has as its system CCRF-CEM/VBL (vinblastine-resistant) cells. Kind of series: XTT microculture cytotoxicity assay, vinblastine-resistant CCRF-CEM/VBL cells. It is filed as cell-based, human. The following applies: for IC50: Homo sapiens, CCRF-CEM.
Protocol: (§2) CCRF-CEM human T-cell acute lymphoblastic leukemia cells and the corresponding vinblastine-resistant cells (CCRF-CEM/VBL100) were cultured at an initial density of 5×10^4 cells per milliliter. The cultured cells were then maintained in a 5% CO2-humidified atmosphere at 37° C. in RPMI medium 1640 (GIBCO/BRL) containing penicillin (100 units/mL), streptomycin (100 μg/mL, GIBCO/BRL), and 10% heat-inactivated fetal bovine serum. The cytotoxicity of each Panaxytriol Compound was measured using the 2,3-bis(2-methoxy-4-nitro-5-sulfophenyl)-5-[(phenylamino)carbonyl]-2H-tetrazolium hydroxide (XTT) microculture method as described in Scudiero et al., Cancer Res., 48:4827 (1988).
Another series relates to CCRF-CEM/Taxol cells. Nature of the series: XTT microculture cytotoxicity assay, Taxol-resistant CCRF-CEM/Taxol cells. It is filed as cell-based, human. The conditions noted are these: Table 3A.
For series [2], the system named is CCRF-CEM human T-cell acute lymphoblastic leukemia cells. Kind of series: XTT microculture cytotoxicity assay, CCRF-CEM cells. The class given is cell-based.
Protocol: as §2
For series [3], the system named is human mammary carcinoma xenograft MX-1. Nature of the series: Therapeutic effect in nude mice bearing MX-1 xenograft. The class given is in vivo. The conditions noted are these: slow i.v. infusion; for Tumor growth at elevated dosage levels: elevated dosages. The method, then:
(§1) Nude mice having human mammary carcinoma xenograft MX-1 were treated with panaxytriol or Compound (A) at various dosages through the slow i.v. infusion protocol by Chou et al. (Chou, T. C., et al, Proc. Natl. Acad. Sci. U.S.A. 95: 15798 (1998)).

Series [4] in a line: Body weight of treated nude mice bearing MX-1 xenograft. It is filed as in vivo. The conditions noted are these: highest dosage levels (100 mg/kg). The method, then:
as §1

The mark [5] stands for this setting: 72 h, Table 3, XTT assay, 72-hour inhibition, vinblastine-resistant cells.
The mark [6] stands for this setting: 72 h, Table 3, XTT assay, 72-hour inhibition, read-out: IC50 (μM) CCRF-CEM.

Where two headings read alike, the source gives them in different places.

Protocol for CCRF-CEM/Taxol cells: as §2

Take `C=C[C@H](O)C#CC#CC[C@H]1OC(C)(C)O[C@@H]1CCCCCCC` [Compound (D)]: the “Fold resistance, CCRF-CEM/VBL vs parent CCRF-CEM (fold increase in IC50)” value in series [1] (Table 3A) is “[1.98-fold”. The “Fold resistance, CCRF-CEM/Taxol vs parent CCRF-CEM (fold increase in IC50)” value with CCRF-CEM/Taxol cells was “[2.17-fold”.

For the compound `C=C[C@H](C#CC#CC[C@H]1OC(C)(C)O[C@@H]1CCCCCCC)OC(=O)/C=C/c1ccccc1` [Compound (E)], in series [2] (Table 3B, read-out: IC50 (in μM) for human leukemic lymphoblastic leukemia cells CCRF-CEM), the concentration for half-maximal inhibition (IC50) came to 6.51 µM.

On to `C=C[C@@H](O)C#CC#CC[C@H]1OC(C)(C)O[C@@H]1CCCCCCC` [Compound A], for which the IC50 in series [1] (setting [5]) turned out to be 2.41 ± 0.05 µM; in series [1] (Table 3A, compound stored in DMSO at below approximately −20° C. for 4 years and 4 months), 6.82 µM; in series [2] (setting [6]), 1.98 ± 0.2 µM; in series [2] (Table 3A, compound stored in DMSO at below approximately −20° C. for 4 years and 4 months, read-out: IC50 (μM) CCRF-CEM) it was 6.15 µM; in the series with CCRF-CEM/Taxol cells (Homo sapiens, CCRF-CEM, compound stored in DMSO at below approximately −20° C. for 4 years and 4 months) it was 17.2 µM. Further, the “Fold resistance, CCRF-CEM/VBL vs parent CCRF-CEM (fold increase in IC50)” value in series [1] (Table 3A) was “[1.4-fold”. The “Tumor growth at elevated dosage levels” value in series [3] was “enhanced tumor-growth suppression”. Further, the “Reduction in tumor mass” value in series [3] (including elevated dosages) was “did not lead to a reduction in the tumor mass”. In series [3] (levels as low as 10 mg/kg, FIG. 2), the Tumor growth result is recorded as “inhibiting tumor growth”.

For `C=CC(=O)C#CC#CC[C@@H](O)[C@H](O)CCCCCCC` [Compound B], the “Fold resistance (IC50 CCRF-CEM/VBL vs CCRF-CEM), in parentheses” value in series [1] (Table 3) was 1.40 x.

As to `C=CC(=O)C#CC#CC[C@H]1OC(C)(C)O[C@@H]1CCCCCCC` [Compound C], the half-inhibitory concentration (IC50) in series [1] (setting [5]) is 3.84 ± 0.08 µM; in series [2] (setting [6]), 3.23 ± 0.78 µM.

As for `CC[C@]1(O)C[C@@H]2CN(CCc3c([nH]c4ccccc34)[C@@](C(=O)OC)(c3cc4c(cc3OC)N(C)[C@H]3[C@@](O)(C(=O)OC)[C@H](OC(C)=O)[C@]5(CC)C=CCN6CC[C@]43[C@@H]65)C2)C1` [Vinblastine, reference compound], the IC50 in series [1] (setting [5]) was 0.8 µM; in series [2] (setting [6]) it was 0.002 µM.

In the case of `C=C[C@@H](O)C#CC#CC[C@@H](O)[C@H](O)CCCCCCC` [panaxytriol], in series [1] (Table 3), the “Fold resistance (IC50 CCRF-CEM/VBL vs CCRF-CEM), in parentheses” value was found to be 1.20 x. Also, the Body weight result in series [4] is reported as “no body weight decrease”. Also, in series [3] (30 mg/kg, FIG. 1), the “Reduction in tumor mass” value is “no significant reduction in tumor mass” and the Tumor growth result was “some suppression of tumor growth”. Also, in series [3], the “Tumor growth at elevated dosage levels” value is given as “improved inhibitory effects”.
